The text below walks through data of ChEMBL document CHEMBL1201862, “PubChem BioAssay data set” (2004).

The nature of experiment [1]: inhibitors of Vif binding to APOBEC3G peptide, primary screen, biochemical, TR-FRET, GST-Vif 1-94, biotin-A3G peptide, dose response retest (AID 1117319).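 Note: TR-FRET signal of purified GST-Vif binding a biotinylated A3G peptide; inhibitors lower the FRET signal by blocking Vif and A3G binding.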 In kind it is functional.
The next experiment has as its target Protein Tat (Human immunodeficiency virus type 1 group M subtype B (isolate HXB2)(HIV-1), UniProt P04608). In kind it is functional.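 Note: tat binding to TAR RNA read out by fluorescence polarization.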
For a further experiment, the target named is Major prion protein (Homo sapiens, UniProt P04156). In kind it is functional, cell-based.
Experiment [2] is described as follows: cells.
The target in experiment [3] is T1, Trace amine-associated receptor 1 (Homo sapiens, UniProt Q96RJ0).
T1 sequence (Q96RJ0 whole entry): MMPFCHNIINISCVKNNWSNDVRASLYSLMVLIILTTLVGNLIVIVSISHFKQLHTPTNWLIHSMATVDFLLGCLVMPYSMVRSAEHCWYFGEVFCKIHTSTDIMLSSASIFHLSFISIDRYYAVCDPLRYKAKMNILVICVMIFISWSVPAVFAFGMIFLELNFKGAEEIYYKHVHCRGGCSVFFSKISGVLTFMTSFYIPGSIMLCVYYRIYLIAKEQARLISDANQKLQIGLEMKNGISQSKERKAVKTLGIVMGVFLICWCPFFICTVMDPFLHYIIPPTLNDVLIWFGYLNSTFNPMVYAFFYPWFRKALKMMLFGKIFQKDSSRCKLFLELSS
As to the kind of experiment: Fluorescence-based cell-based high throughput dose response assay to identify antagonists of the human trace amine associated receptor 1 (TAAR1). In kind it is functional.

Experiment [4] can be described thus: Counterscreen for antagonists of the human trace amine associated receptor 1 (hTAAR1): Fluorescence-based cell-based high throughput dose response assay to identify nonselective Ga16 antagonists. The format is functional.
The target of experiment [5] is T1, Trace amine-associated receptor 1. The experiment in a line: Counterscreen for antagonists of the human trace amine associated receptor 1 (hTAAR1): Fluorescence-based cell-based high throughput dose response assay to identify TAAR1 Agonists. The format is functional.
Experiment [6] is described as follows: Counterscreen for […] of the human trace amine associated receptor 1 (TAAR1): Fluorescence-based cell-based high throughput dose response assay to identify nonselective Ga16 agonists. The format is functional.
Experiment [7] is described as follows: THP-1 cell cytotoxicity, dose response, cytotoxicity control for Vif-APOBEC3G degradation inhibitor project, THP-1 cells (AID 1117359). The format is functional. The following applies: Human immunodeficiency virus 1, THP-1.
Experiment [8] is described as follows: HEK293 Cytotoxicity Assay Measured in Cell-Based System Using Plate Reader - 7071-01_Inhibitor_Dose_CherryPick_Activity_Set2. The format is functional.
In another experiment the test system is HEK293. As to the kind of experiment: HEK293T cell cytotoxicity, dose response, cytotoxicity control, ATP luminescence, cherry-pick samples (AID 687005).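 Note: cells exposed to compound for 48 hours.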 The format is functional, cell-based. The following applies: Homo sapiens.
For experiment [9], the system named is Cryptococcus neoformans. The experiment in a line: Cryptococcus growth inhibition by alamar blue – cell lysis, cherry-picks, replicate tests, mechanism study for C. neoformans antifungal project, dose response (AID 686999). The format is functional, organism-based.
The subject of the next experiment is HeLa. The experiment in a line: HeLa cell cytotoxicity, dose response, cytotoxicity control, ATP luminescence, cherry-pick samples (AID 687004). The format is functional, cell-based.
Experiment [10] deals with Cryptococcus neoformans. The experiment in a line: PubChem AID 686997. The format is functional, organism-based.
A short description of experiment [11]: A2780 ovarian cancer cell cytotoxicity, dose response, cytotoxicity control, plate reader, dry powder samples (AID 743046). In kind it is functional, cell-based.
The target of a further experiment is Paired box protein Pax-8 (Homo sapiens, UniProt Q06710). The experiment in a line: inhibitors of PAX8-driven TPO luciferase reporter, dose response, RMG-I cells, cherry-pick (AID 687027).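 Note: luciferase reporter driven by Pax8 target thyroperoxidase promoter measured by SteadyGlo luminescence.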 The format is functional, cell-based.
Experiment [12] in a line: cells. This is another data set of the same source.
Experiment [13] addresses T2, Oxysterols receptor LXR-beta (Homo sapiens, UniProt P55055).
T2 sequence (P55055 whole entry): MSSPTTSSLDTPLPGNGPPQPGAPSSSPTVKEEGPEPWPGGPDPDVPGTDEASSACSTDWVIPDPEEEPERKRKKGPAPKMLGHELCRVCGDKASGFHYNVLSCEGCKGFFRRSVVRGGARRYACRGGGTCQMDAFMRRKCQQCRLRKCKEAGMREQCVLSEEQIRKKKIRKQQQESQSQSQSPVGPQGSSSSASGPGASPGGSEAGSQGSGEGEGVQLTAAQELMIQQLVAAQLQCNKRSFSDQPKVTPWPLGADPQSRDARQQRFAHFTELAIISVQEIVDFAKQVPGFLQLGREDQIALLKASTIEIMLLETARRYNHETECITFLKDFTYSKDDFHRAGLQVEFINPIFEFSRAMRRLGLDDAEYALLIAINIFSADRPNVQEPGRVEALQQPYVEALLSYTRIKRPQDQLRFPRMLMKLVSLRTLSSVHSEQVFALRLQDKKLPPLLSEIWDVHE
In kind it is functional, cell-based.

A short description of experiment [14]: cells. The note with it: HEK293.
Experiment [15] is described as follows: HepG2 cell cytotoxicity, dose response, cytotoxicity control, plate reader, dry powder, set 6 (AID 743311). In kind it is functional, cell-based.
Experiment [16] is described as follows: A549 cell cytotoxicity, dose response, cytotoxicity control, plate reader, dry powder, set 6 (AID 743312). The format is functional, cell-based.
A short description of experiment [17]: P. falciparum Dd2 growth inhibitors, dose response, SYBR Green, dry powder samples (AID 1159566).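 Note: potency for growth inhibition with lower SYBR green DNA signal.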 In kind it is functional, cell-based.
A short description of experiment [18]: P. falciparum Dd2 growth inhibitors, dose response, SYBR Green, cherry-picked samples (AID 1159567). The format is functional, cell-based.
Experiment [19] is described as follows: P. falciparum ATP4 D1247Y mutant growth inhibitors, dose response, NITD609-resistant line, SYBR Green, dry powder (AID 1159571).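 Note: parasites synchronized at ring stage by sorbitol before testing.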 The format is functional, cell-based.
A short description of experiment [20]: P. falciparum 3D7-ScDHODH growth inhibitors, dose response, SYBR Green, dry powder samples (AID 1159570).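 Note: parasite growth measured after 72 hours of compound exposure.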 The format is functional, cell-based.

Molecules are shown by their SMILES. Activity calls are given as the source filed them. Where only a bound is given, the exact number is not on record here.

Regarding `CC(=O)C1=C(O)C(=O)N(Cc2ccco2)C1c1ccc(F)cc1` (stereo not drawn), the IC50 (in experiment [1]; at Protein Tat) was > 100 µM (active) each time.
As for `CC(C)(C)c1nc(SCC(=O)NNC(=O)c2ccccc2)c2ccccc2n1`, the IC50 on Major prion protein is 5.46 µM (active); in “cells [2]”, > 138 µM (inactive).
Regarding `O=[N+]([O-])c1ccc(-c2c(-c3ccccc3)ncc3ccc(F)cc23)cc1`, the IC50 is 1.83 µM (active) in experiment [3] and > 29.9 µM (inactive) in [4]. Besides, the EC50 in [5] and in experiment [6] was > 29.9 µM (inactive) throughout.
For `COc1cccc(-c2nc(CS(=O)(=O)CC(=O)NC3CC3)c(C)o2)c1`, in [7], the half-maximal cytotoxic concentration (CC50) was > 40 µM (active).
For the molecule `COC(=O)C1=C(C)N(CC(C)C)C(=S)NC1c1ccc(-c2ccccc2)cc1` (stereo not drawn), the AC50 is 20.4 µM (active) in [8]; 20.4 µM (active) with HEK293; 51.6 µM (active) with Cryptococcus neoformans [9]; > 52 µM (inactive) in the experiment with HeLa; 42 µM (active) with HeLa (Homo sapiens); 23.6 µM (active) with Cryptococcus neoformans [10]. Further, the AC50 in the experiment with Cryptococcus neoformans [10] (Cryptococcus neoformans) is 15.6 µM (active).
Regarding `C[C@H]1CN([C@@H](C)CO)C(=O)Cc2cc(NC(=O)Nc3ccc(C(F)(F)F)cc3)ccc2O[C@H]1CN(C)C(=O)Nc1ccc(C(F)(F)F)cc1`, the figures for the AC50 (in experiment [11]; on Paired box protein Pax-8) were 25.8 µM (active) and 13 µM (active), respectively.
In the case of `Cc1ccsc1/C=N/N=C/c1sccc1C`, the EC50 (in “cells [12]”; in [13]) was > 67.5 µM (inactive) each time.
On to `CC(C)(C)c1ccc(OCCn2cnc3ccccc32)c(Cl)c1`, for which the half-maximal activity concentration (AC50) in “cells [14]” is 37.4 µM (active); in experiment [15], 36.6 µM (active).
Turning to `CC(C)(C)c1ccc(OCCn2c(CO)nc3ccccc32)cc1`, the AC50 in experiment [16] was 20.6 µM (active); in “cells [14]”, 21.6 µM (active).
Consider `OC[C@H]1CC[C@@H]2O[C@H](CCc3ccc(C#CCc4ccccc4)cc3)[C@H](n3cc(-c4ccccc4)nn3)C[C@@H]2O1`, for which the AC50 is 0.407 µM (active) in experiment [17], 0.739 µM (active) in experiment [18], 0.665 µM (active) in [19] and 1.39 µM (active) in experiment [20].
